{"source": "patent US11613552B2", "about": "“Pharmaceutical agents, compositions, and methods relating thereto” (Alltech, Inc., priority 2017, dated 2023)", "key": {"Insrβ/Pdk1/Akt/AS160": {"system": "Insrβ/Pdk1/Akt/AS160", "assay": "Western blot of Insrβ/Akt/AS160 phosphorylation in differentiated C2C12 cells", "assay_type": "cell-based, mouse", "settings": "for pInsrβ levels: 200 nM insulin or 600 ppb Compound #43, prolonged treatment 60 minutes", "protocol": "To differentiate the C2C12 cells, equal number of these myoblast cells were firstly seeded on 12-well plates (60,000 cells/well) and cultured in 10% FBS DMEM media at 37° C. for 5 days. These cells were replenished daily with fresh 10% FBS DMEM media. At day 5 after the culture, C2C12 cells were differentiated using 0.5% horse serum (Sigma)-containing DMEM media (differentiation media) for 7 days with daily replacement of fresh differentiation media, similar to previous described (Misu et al, Cell Metabolism 12, 483-495, 2010). At day 7 after the differentiation, differentiated C2C12 cells were rinsed with PBS twice and incubated in serum-free DMEM media overnight. Then these serum-starved cells were treated without (basal) or with insulin (200 nM), Compound #43 (600 ppb), or both insulin and Compound #43 in serum-free DMEM media at 37° C. for 5 and 60 minutes.\nAfter the above treatments, cultured HepG2 cells or differentiated C2C12 cells were rinsed twice with ice-cold PBS and lysed in ice-cold RIPA buffer containing complete proteinase and phosphatase inhibitors (Thermo-Fisher Scientific, Waltham, Mass.) on ice for 30 min. Cell lysates were collected using a cell scraper and transfer pipette, and then centrifuged at 12000×g for 30 min at 4° C. to remove the DNA pellet and obtain the protein extract. Protein levels in the supernatant of these cell lysates were determined using the Pierce Micro-BCA protein assay kit (Thermo Scientific-Piece Biotechnology, Rockford, Ill.) according to the manufacturer's protocol.\nOne hundred micrograms of skeletal muscle or liver tissue proteins, five micrograms of HepG2 cell protein extracts, or eight micrograms of differentiated C2C12 cell protein extracts were subjected to SDS-PAGE gel separation and then transferred to PVDF membranes, as described previously (Reddy et al. 2008 Science). Membranes were blocked in a phosphate-buffered saline (PBS) containing 5% (w/v) of bovine serum albumin (Sigma, St. Louis, Mo.) and incubated with specific primary antibodies followed by the incubation with HRP-conjugated anti-mouse or anti-rabbit secondary antibodies (1:5000 dilution, Cell Signaling Inc.). All primary antibodies were purchased from Cell Signaling Inc, except the antibodies against β-tubulin (LI-COR bioscience). Positive signals on the membrane blots were detected using the Amersham's enhanced chemiluminescence Western Blotting Prime Detection reagents (GE Healthcare Lifescience, Pittsburgh, Pa.). Images of these luminescence signals on the membrane blots were captured using the LI-COR Odyssey Fc Image system (Lincoln, Nebr.). The same membrane blot was stripped and re-blotted with another antibody as described in the GE WB ECL-prime-detection protocol (GE healthcare Lifescience, Pittsburgh, Pa.). Protein band densities in the Western blots were determined using the NIH ImageJ software and then normalized by β-tubulin or ACTB protein level in each sample. Data are presented as mean±SEM of 3-5 samples per group."}, "G6pc": {"system": "G6pc", "assay": "QRT-PCR of 8-CPT/Dex-induced G6pc expression in AML-12 cells", "assay_type": "cell-based, mouse", "settings": "for G6pc mRNA level normalized by non-8-CPT/Dex-treated group: with 8-CPT/Dex (8-CPT/Dex alone 41.5)", "protocol": "For RNA analysis of the diabetic stimuli-induced G6pc expression, the AML-12 cells were pretreated without or with Compound #43 (150 or 300 ppb) in 10% FBS but ITS/Dex-free DMEM/F12 media for 24 hr. Then these cells were washed twice with PBS remove any residual sera, and incubated with Compound #43 (150 or 300 ppb) in the presence or absence of insulin (10 or 100 nM), or 0.1 mM 8-CPT (Sigma) and 0.5 μM Dex in serum-free plain DMEM/F12 media for another 6 hours.\nTotal RNA from saline- or selenium compound-treated Lepr^db/db mice was isolated using a Qiagen RNAeasy RNA isolation kit according to the Manufacturer's protocol. Total RNA from cultured cells was isolated using Trizol (Invitrogen) according to the manufacturer's protocol, and then incubated with DNase I to remove any potential contaminating genomic DNA. RNA samples were subjected to real-time PCR (QRT-PCR) analysis using Applied-Bioscience's RT kit and predesigned Taqman probes (Invitrogen), as described previously (Lan et al EMBO J 2003). Data were normalized by Actin B (Actb) mRNA levels in each sample, and are presented as mean±SEM of 3-5 samples."}, "HepG2 cells": {"system": "HepG2 cells", "assay": "Glucose production assay in HepG2 cells", "assay_type": "cell-based, human", "settings": "for reduction in glucose production compared with 100 nM insulin / CDE / reduction in glucose production: 48 hr; for reduction in glucose production: serum-free", "protocol": "Equal numbers of Human HepG2 or rat H4IIE cells (1-1.5×10^5 cells/well) were seeded on 96 well plates in 10% FBS-containing media for 24 hr. Cells were then washed twice with PBS, and treated with various concentrations of compounds, metformin or insulin in 100 μl of glucose production media (glucose-free, phenol red-free DMEM media supplemented with 20 mM sodium lactate, 2 mM sodium pyruvate and 5 mM HEPES) at 37° C. for 24 hr (H4IIE cells only) or 48 hr (HepG2 cell only). Cells were also incubated with 0.24% DMSO (the maximal volume of DMSO solvent used in the experiments).\nAfter the above treatments, 50 μl of culture media were collected, and subjected to glucose analysis using Molecular Probes Amplex Red glucose assay kit (Cat #A22189) according to the manufacturer's protocol. Cell numbers or viability in the culture plate after the above compound treatments were determined using Promega's CellTiter96® AQueous One Solution Cell Proliferation Assay kits, according to the manufacturer's protocol and instructions. In brief, after removing 50 μl of culture media for glucose assay, cells were incubated with AQueous One solution (25 μl stock solution and 50 μl prewarmed PBS/per well) at 37° C. for 1 hour, and the absorbance of OD490 nm in each sample was determined by the Bio-Tek microplate reader. Cell viability in culture wells were determined by the subtraction of OD490 nm in cultured cells with the OD490 nm in plain culture media (without seeding of cells). Glucose production in the culture cells were obtained by normalizing the glucose concentration in culture media by cell viability in each well. At least 3 samples per each treatment were examined for the above analysis. Data are presented as Mean±SEM of those samples. Experiments were repeated at least twice.\nThe half maximal inhibitory concentration (IC50 values) of Compound #43 or metformin for the inhibition of glucose production were determined using the ED50 Plus v1.0 online software."}, "[1]": {"settings": "200 nM insulin or 600 ppb Compound #43, 5 minutes"}, "[2]": {"settings": "200 nM insulin or 600 ppb Compound #43, 60 minutes"}}, "note": "Entries after “also recorded” stand apart in the source; their conditions may differ."}
{"molecule": "C[Se]C[C@H]1O[C@@H](n2cnc3c(N)ncnc32)C(OC(C)=O)C1OC(C)=O", "note": "(stereo partly shown) [Compound #43, Adenosine, 5′-Se-methyl-5′-selino-, 2′,3′-diacetate]", "values": [{"measurement": "pInsrβ at Y1146", "setting": "Insrβ/Pdk1/Akt/AS160; [1]", "result": "significant increase of pInsrβ at Y1146"}, {"measurement": "phosphorylated Akt protein levels", "setting": "Insrβ/Pdk1/Akt/AS160; [1]", "result": "did not cause a significant increase of phosphorylated Akt protein levels"}, {"measurement": "phosphorylated Akt protein levels", "setting": "Insrβ/Pdk1/Akt/AS160; [2]", "result": "robust increased of phosphorylated Akt proteins levels"}, {"measurement": "pInsrβ levels", "setting": "Insrβ/Pdk1/Akt/AS160", "result": "decrease in pInsrβ levels"}, {"measurement": "phosphorylated AS160 and total AS160 protein levels", "setting": "Insrβ/Pdk1/Akt/AS160; 600 ppb alone, 5 minutes", "result": "did not affect the protein levels of phosphorylated AS160 and total AS160"}, {"measurement": "increase in phosphorylated AS160 at S588", "setting": "Insrβ/Pdk1/Akt/AS160; 600 ppb, 60 minutes", "result": "about 6 fold"}, {"measurement": "pInsrβ protein levels", "setting": "Insrβ/Pdk1/Akt/AS160; co-treatment insulin 200 nM and Compound #43 600 ppb, 5 minutes", "result": "tended to increase pInsrβ protein levels"}, {"measurement": "phosphorylated AS160 protein levels", "setting": "Insrβ/Pdk1/Akt/AS160; co-treatment insulin and Compound #43, 5 and 60 minutes", "result": "significant increase of phosphorylated AS160 protein levels"}, {"measurement": "pAkt protein levels", "setting": "Insrβ/Pdk1/Akt/AS160; co-treatment insulin and Compound #43, both tested time points", "result": "significant increase of pAkt protein levels"}, {"measurement": "reduction of 8-CPT/Dex-induced G6pc expression vs 8-CPT/Dex group", "setting": "G6pc; 150 and 300 ppb alone", "result": "~68", "unit": "%"}, {"measurement": "effect on 8-CPT/Dex-induced G6pc expression", "setting": "G6pc; 150 or 300 ppb co-treated with 100 nM insulin", "result": "almost completely abolished 8-CPT/Dex-induced G6pc expression"}, {"measurement": "G6pc mRNA level normalized by non-8-CPT/Dex-treated group", "setting": "G6pc; 150 ppb, Column #5 FIG. 11", "result": 13}, {"measurement": "G6pc mRNA level normalized by non-8-CPT/Dex-treated group", "setting": "G6pc; 300 ppb, Column #8 FIG. 11", "result": 13.5}, {"measurement": "reduction in glucose production compared with 100 nM insulin / CDE", "setting": "HepG2 cells; 3.8 μM", "result": "as potent as the CDE combination product"}, {"measurement": "reduction in glucose production compared with 100 nM insulin / CDE", "setting": "HepG2 cells; 3.8 μM, listed as compound #43", "result": "comparable to that achieved when insulin (100 nM) was used"}, {"measurement": "reduction in glucose production compared with 100 nM insulin / CDE", "setting": "HepG2 cells; 7.6 μM or higher (7.6, 15.2 and 30.4 μM)", "result": "much more potent than 100 nM insulin; also recorded: more potent than CDE"}, {"measurement": "relative potency among tested compounds in inhibiting glucose production", "setting": "HepG2 cells; FIG. 1 left-hand panel", "result": "the most potent"}, {"measurement": "IC50", "setting": "HepG2 cells; Homo sapiens, HepG2, 48 hr, read-out: IC50 (inhibition of glucose production)", "result": 15.5, "unit": "µM"}, {"measurement": "effect on glucose production in HepG2 cells", "setting": "HepG2 cells; tested doses, serum-free glucose production media, 48 hr (FIG. 1)", "result": "decrease in glucose levels in the culture media; also recorded: inhibited glucose production"}]}
{"molecule": "insulin: insulin purchased from Sigma, positive control", "values": [{"measurement": "pInsrβ at Y1146", "setting": "Insrβ/Pdk1/Akt/AS160; [1]", "result": "significant increase of pInsrβ at Y1146"}, {"measurement": "phosphorylated Akt protein levels", "setting": "Insrβ/Pdk1/Akt/AS160; [1]", "result": "significant increase of phosphorylated Akt"}, {"measurement": "phosphorylated Akt protein levels", "setting": "Insrβ/Pdk1/Akt/AS160; [2]", "result": "not observed"}, {"measurement": "pInsrβ levels", "setting": "Insrβ/Pdk1/Akt/AS160", "result": "decrease in pInsrβ levels"}, {"measurement": "increase in phosphorylation of AS160 at S588", "setting": "Insrβ/Pdk1/Akt/AS160; 200 nM insulin, 5 min", "result": "about 2 fold"}, {"measurement": "phosphorylated AS160", "setting": "Insrβ/Pdk1/Akt/AS160; 200 nM insulin, 60 minutes", "result": "no obvious increase in phosphorylated AS160"}, {"measurement": "effect on 8-CPT/Dex-induced G6pc expression", "setting": "G6pc; 10 nM and 100 nM insulin, 6 hr", "result": "significantly decreased 8-CPT/Dex-induced G6pc expression"}, {"measurement": "reduction in glucose production", "setting": "HepG2 cells; 10 nM insulin", "result": 20, "unit": "%"}, {"measurement": "reduction in glucose production", "setting": "HepG2 cells; 100 nM insulin", "result": 30, "unit": "%"}]}
